In patent US9266890B2, “Pyrimido-diazepinone kinase scaffold compounds and methods of treating disorders” (Dana-Farber Cancer Institute, Inc., priority 2009, dated 2016):

Molecular target: Mps1 (TTK) (Homo sapiens (Human), UniProt P33981)
Assay: Mps1 (TTK) Cellular Assay - Mitotic Escape Assay
Type: cell-based
Settings: Hela cells arrested with thymidine then nocodazole (0.33 μM); compound 0.25-10 uM for 2 hrs
Protocol: FIG. 1. […] Hela cells were arrested in mitosis using the following protocol. Cells were treated with thymidine (2.5 mM) for 24 hours. Cells were released into medium containing nocodazole (0.33 μM). After 16 hrs. cells were treated with I-10 a range of concentrations (0.25, 0.5, 1, 2, 5 and 10 uM) shown above for 2 hrs. Cells were harvested and the levels of cyclin B (a marker for mitosis) were determined by immunoblot. High cyclin B levels indicated mitotic cells, while low cyclin B levels indicate cells have exited nocodazole-induced mitotic arrest.
Hela (or U2OS cells) were plated at roughly 30-35% cell density. After 24 hours the medium* was removed and fresh medium supplemented with 2.5 mM thymidine was added to arrest cells at the G1/S transition. After 24 hours in thymidine block the medium was removed, the cells were washed 3× with PBS and replaced with medium supplemented with 330 nM nocodazole (Noc). The cells were incubated with nocodazole for 16-18 hours to produce a mitotic arrest. […] After 2 hours, the cells were harvested, lysed in RIPA buffer, and the levels of cyclin B or phosphorylated Histone 3 (Ser10) determined by western blotting. Alternatively, cells were treated on coverslips, fixed, and phosphorylated Histone 3 levels determined by immunofluorescence. […]

Sequence of Mps1 (TTK) (P33981 whole entry): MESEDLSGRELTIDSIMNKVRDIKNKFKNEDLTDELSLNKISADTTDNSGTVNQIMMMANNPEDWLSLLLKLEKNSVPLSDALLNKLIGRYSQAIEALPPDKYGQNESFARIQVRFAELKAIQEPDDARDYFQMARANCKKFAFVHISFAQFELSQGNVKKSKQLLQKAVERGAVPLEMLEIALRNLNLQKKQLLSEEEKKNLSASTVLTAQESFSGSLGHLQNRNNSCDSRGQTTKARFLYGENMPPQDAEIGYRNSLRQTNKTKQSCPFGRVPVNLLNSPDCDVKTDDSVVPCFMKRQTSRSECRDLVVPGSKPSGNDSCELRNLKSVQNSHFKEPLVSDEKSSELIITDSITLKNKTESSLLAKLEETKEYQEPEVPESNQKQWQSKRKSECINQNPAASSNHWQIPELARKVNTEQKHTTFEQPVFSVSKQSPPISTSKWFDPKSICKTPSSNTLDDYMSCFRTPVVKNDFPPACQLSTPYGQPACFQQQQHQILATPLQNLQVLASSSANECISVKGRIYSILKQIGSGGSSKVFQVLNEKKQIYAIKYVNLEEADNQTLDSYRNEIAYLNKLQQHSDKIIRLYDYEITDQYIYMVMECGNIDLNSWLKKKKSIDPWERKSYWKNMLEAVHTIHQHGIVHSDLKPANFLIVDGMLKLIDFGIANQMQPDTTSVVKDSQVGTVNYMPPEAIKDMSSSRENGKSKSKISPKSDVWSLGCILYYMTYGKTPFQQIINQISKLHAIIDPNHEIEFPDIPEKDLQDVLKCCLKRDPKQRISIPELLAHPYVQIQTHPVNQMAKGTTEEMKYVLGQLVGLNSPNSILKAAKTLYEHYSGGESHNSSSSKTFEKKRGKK

Compound | escape from mitosis (cyclin B levels by immunoblot)
CCOc1cc(N2CCC(O)CC2)ccc1Nc1ncc2c(n1)N(C1CCCC1)CCC(=O)N2C [Compound I-10] | induces escape from mitosis

Molecular target: Plk1 (Homo sapiens (Human), UniProt P53350)
Assay: Plk1 Cellular Assay - Mitotic Arrest Assay
Type: cell-based
Settings: Hela cells, immunofluorescence microscopy, 24 hours post-treatment
Protocol: FIG. 2. […] Using immunofluorescence microscopy the cells were located by their DNA stain (Hoechst) and were then scored for phospho H3 positivity. Cells that are arrested in mitosis are phospho H3 positive.
Hela cells were plated at roughly 80% cell density on poly-lysine coated glass coverslips. After 24 hours the medium* was removed and fresh medium supplemented with test compounds was added. Twenty-four hours post-treatment the medium was removed, the coverslips were washed once with phosphate-buffered saline (PBS), pH 7.4 and the cells fixed for 10 minutes at room temperature using the following fixative solution: 100 mM K-Pipes, pH 6.8, 10 mM EGTA, 1 mM MgCl2, 0.2% Triton X-100, 3% formaldehyde. The coverslips were washed 3× with Tris-buffered saline solution (50 mM Tris-HCl pH 7.4, 150 mM NaCl) containing 0.1% Triton X-100 (TBST). The samples were blocked using 2% bovine serum albumin (BSA) in TBST. The samples were then incubated with a phosphorylation-specific antibody against histone 3 (phospho H3) serine-10 (Upstate, 1:500-1:1000) in blocking solution. Cells can also optionally be stained for tubulin as well using appropriate antibodies. After a 2-hr. incubation at room temperature (or 4° C. overnight), the samples were washed 3× with TBST. The samples were then incubated with an appropriate secondary antibody in blocking solution for 1-2 hrs at room temperature (or 4° C. overnight). […] The samples were washed 3× with TBST and mounted onto glass slides using Prolong Gold Antifade Reagent (Invitrogen). See FIGS. 2 and 3. *Hela/U2OS medium—Dulbecco's Modified Eagle's Medium (DMEM, Sigma), 10% fetal bovine serum, 1% penicillin/streptomycin

Sequence of Plk1 (P53350 whole entry): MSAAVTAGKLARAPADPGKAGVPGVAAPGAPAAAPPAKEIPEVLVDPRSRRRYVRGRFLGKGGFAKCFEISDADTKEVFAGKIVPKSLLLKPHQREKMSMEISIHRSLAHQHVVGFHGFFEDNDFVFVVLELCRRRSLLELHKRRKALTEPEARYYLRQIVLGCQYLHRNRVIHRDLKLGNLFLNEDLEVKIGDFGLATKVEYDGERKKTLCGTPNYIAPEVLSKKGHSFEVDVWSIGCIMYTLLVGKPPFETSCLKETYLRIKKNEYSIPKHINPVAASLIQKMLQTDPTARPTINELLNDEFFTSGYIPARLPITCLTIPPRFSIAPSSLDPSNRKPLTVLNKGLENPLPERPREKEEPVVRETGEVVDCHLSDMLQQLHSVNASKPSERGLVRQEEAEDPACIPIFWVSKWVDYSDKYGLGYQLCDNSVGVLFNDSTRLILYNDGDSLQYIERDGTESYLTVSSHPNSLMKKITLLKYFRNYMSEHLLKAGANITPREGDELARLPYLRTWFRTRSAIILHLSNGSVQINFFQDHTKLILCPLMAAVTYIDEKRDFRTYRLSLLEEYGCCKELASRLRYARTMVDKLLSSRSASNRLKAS

Compound | mitotic arrest (phospho H3 positivity)
COc1cc(N2CCC(O)CC2)ccc1Nc1ncc2c(n1)N(C1CCCC1)CCC(=O)N2C [Compound I-6] | do not
COc1cc(N(C)CCCO)ccc1Nc1ncc2c(n1)N(C1CCCC1)CCC(=O)N2C [Compound I-8] | do not
COc1cc(C(=O)NC2CCN(C)CC2)ccc1Nc1ncc2c(n1)N(C1CCCC1)CC(C)C(=O)N2C (stereo not drawn) [Compound I-5] | induce a strong mitotic arrest
COc1cc(C(=O)NC2CCN(C)CC2)ccc1Nc1ncc2c(n1)N(C1CCCC1)C(C)CC(=O)N2C (stereo not drawn) [Compound I-4] | induce a strong mitotic arrest
COc1cc(N(C)CCO)ccc1Nc1ncc2c(n1)N(C1CCCC1)CCC(=O)N2C [Compound I-7] | do not
